From patent US7247612B2, “Methods of treating an inflammatory disease with a JJT-1 polypeptide” (Japan Tobacco Inc., priority 1997, dated 2007)

Test system: rat lymphoblast cells activated with concanavalin A
Assay: Aggregation of concanavalin A-activated rat lymphoblast cells
Assay type: cell-based
Details: ConA-activated rat lymphoblasts
Procedure: The hybridomas prepared in Example 1 were screened by analyzing the effect of the antibodies produced in the culture supernatant of the hybridomas on FTL435 cells, which were used as the immunogen. FTL435 cells (5×10^6 cells/ml, 0.1 ml) were seeded into each well of a 96-well microtiter plate and cultivated at 37° C. for an hour in the presence of culture supernatant of each hybridoma (10 μg/ml each).
In order to determine whether the aggregation of FTL435 cells induced by “JTT-1 antibody” stimulation was caused by the cell adhesion between intercellular adhesion molecule-1 (ICAM-1) and lymphocyte function-associated antigen-1 (LFA-1), which is a representative known pathway of cell adhesion, FTL435 cells were cultivated at 37° C. for an hour in the presence of anti-rat ICAM-1 antibody 1A29 (10 μg/ml; IgG1) or anti-rat LFA-1 antibody (10 μg/ml; IgG2a) together with “JTT-1 antibody.”
In order to further analyze the cell agglutination ability of “JTT-1 antibody,” the ability to agglutinate rat lymphoblast cells activated with concanavalin A stimulation was analyzed in the same manner as mentioned above.

CCCCCCCCCCCCCC(=O)O[C@@H]1[C@@H](C)[C@@]2(O)[C@@H](C=C(CO)C[C@]3(O)C(=O)C(C)=C[C@@H]23)[C@@H]2C(C)(C)[C@]12OC(C)=O [phorbol myristate acetate]
Aggregation of activated lymphoblast cells: no aggregation through cell adhesion unless they receive the stimulation
